Legend:
Format in all cases: cell-based
human TLR9 = target: T1, human TLR9 (Homo sapiens, UniProt Q9NR96); assay: HEK-Blue hTLR9 assay (SEAP reporter) with agonist ODN 2006; conditions: Table A; HEK-Blue hTLR9 cells, ~3×EC50 ODN 2006, 18 h; exact values 8-point dilutions, approximate (~ or <) 4-point dilutions; read-out: ~IC50 (μM) with ODN2006
T1 construct: host or cells: HEK-Blue hTLR9 (HEK-293)
T1 sequence (Q9NR96 26-1032): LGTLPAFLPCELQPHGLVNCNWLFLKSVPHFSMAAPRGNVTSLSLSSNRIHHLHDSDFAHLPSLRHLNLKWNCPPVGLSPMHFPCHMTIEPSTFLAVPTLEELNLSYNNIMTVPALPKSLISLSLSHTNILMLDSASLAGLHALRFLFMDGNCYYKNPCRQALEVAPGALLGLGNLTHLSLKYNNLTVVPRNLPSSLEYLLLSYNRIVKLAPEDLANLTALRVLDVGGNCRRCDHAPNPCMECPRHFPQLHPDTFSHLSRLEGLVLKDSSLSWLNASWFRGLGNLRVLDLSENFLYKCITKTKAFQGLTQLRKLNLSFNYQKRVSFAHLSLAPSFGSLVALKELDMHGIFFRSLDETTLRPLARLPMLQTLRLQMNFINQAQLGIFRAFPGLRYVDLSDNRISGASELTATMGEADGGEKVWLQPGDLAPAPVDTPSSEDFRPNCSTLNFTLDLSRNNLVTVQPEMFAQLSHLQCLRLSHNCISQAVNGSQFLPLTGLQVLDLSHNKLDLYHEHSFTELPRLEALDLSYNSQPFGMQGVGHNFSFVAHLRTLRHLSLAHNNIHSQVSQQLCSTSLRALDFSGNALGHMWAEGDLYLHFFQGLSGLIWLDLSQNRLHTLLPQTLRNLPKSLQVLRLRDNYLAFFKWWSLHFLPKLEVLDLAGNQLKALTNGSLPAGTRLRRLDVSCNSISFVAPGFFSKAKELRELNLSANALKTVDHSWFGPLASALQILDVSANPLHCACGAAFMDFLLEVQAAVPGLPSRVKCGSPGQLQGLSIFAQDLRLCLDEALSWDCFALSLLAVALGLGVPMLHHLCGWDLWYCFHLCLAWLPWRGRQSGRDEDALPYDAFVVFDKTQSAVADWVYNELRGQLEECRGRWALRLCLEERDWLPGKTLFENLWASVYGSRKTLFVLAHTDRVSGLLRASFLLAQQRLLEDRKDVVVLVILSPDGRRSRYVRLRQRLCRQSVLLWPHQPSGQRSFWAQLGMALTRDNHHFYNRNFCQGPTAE
Protocol: Synthetic ODNs (ODN 2006 (ODN7909), class B CpG oligonucleotide, TLR9 agonist) was obtained from InvivoGen and was dissolved in endotoxin-free water to a concentration 500 μM, vortexed until complete solubilization, and stored in aliquots at −20° C. Prior to addition to cells, an aliquot of the dissolved ligand was vortexed shortly and then was diluted in medium to 50 μM. The EC50 of the agonist for each assay run was determined by using 3-fold dilutions from the starting concentration 10 μM.
Test compounds were solubilized fresh to 10-20 mM stocks in DMSO and sonicated for 5-10 minutes in a water bath sonicator. Serial dilutions were prepared in DMSO, and then diluted in medium. The final concentration of DMSO used in the assay was 1%.
HEK-Blue hTLR9 reporter cells (InvivoGen) are HEK-293 cells stably expressing both the human TLR9 gene and a secreted embryonic alkaline phosphatase (SEAP) reporter construct downstream of NFκB promotor sites. HEK-Blue hTLR9 cells were cultured according to manufacturer's protocol using Dulbecco's Modified Eagle Medium (DMEM; Gibco) containing 1× GlutaMax (Gibco), 10% heat-inactivated Fetal Bovine Serum (Gibco), Pen-Strep (50 U/mL penicillin, 50 μg/mL streptomycin, Gibco), 100 μg/mL Normocin (InvivoGen), and the selective antibiotics, 10 μg/mL Blasticidin (InvivoGen), and 100 μg/mL Zeocin (InvivoGen). Quanti-Blue reagent (InvivoGen) for detection and quantification of secreted alkaline phosphatase was dissolved in 100 mL of endotoxin-free water, warmed to 37° C. for 30 minutes and then filtered using a 0.2 μm membrane.
On day 1, 50 μL of each test compound dilution in duplicates or a vehicle control was added to each well of a 96-well plate followed by addition of 150 μL of HEK-Blue hTLR9 cell suspension (1×10^5 cells/well) and incubated at 37° C./5% CO2 for 2 h. Next, 50 μL of an approximate 3×EC50 concentration of TLR9 agonist, ODN 2006, was added to the wells containing test compounds or the vehicle control. The plates were then incubated at 37° C./5% CO2 for 18 h. For each assay run, vehicle-treated HEK-Blue hTLR9 cells were treated with serial dilutions of agonist to determine EC50 values for the respective run.
On day 2, secreted alkaline phosphatase (SEAP) activity was detected in cell culture supernatants. In brief, 30 μL was collected from each well and transferred to a 96-well plate. Next, 200 μL of Quanti-Blue detection reagent was added to each well. Plates were incubated at 37° C. for 60 min. and SEAP activity was assessed by spectrophotometer OD reading at 655 nm. Table A and Table B show the activities of the compounds tested in HEK-Blue hTLR9 cells against ODN 2006. The activities of the compounds against ODN 2006 are presented as IC50 values which were defined as concentrations of the compounds where percent inhibition of the signal induced by agonist is equal to 50. Exact IC50 values were calculated based on 8-point dilutions for each compound. Approximate IC50 values (˜ or <) were calculated based on 4-point dilutions for each compound.

human TLR2 [1] = target: T2, human TLR2 (Homo sapiens, UniProt O60603); assay: HEK-Blue hTLR2 antagonism assay (SEAP reporter) with agonist Pam3CSK4 (TLR1/2 agonist); conditions: Table A; HEK-Blue hTLR2 cells, ~3×EC50 Pam3CSK4, 18 h, SEAP OD 655 nm, 8-point dilutions
T2 construct: host or cells: HEK-Blue hTLR2 (HEK-293)
T2 sequence (O60603 21-784): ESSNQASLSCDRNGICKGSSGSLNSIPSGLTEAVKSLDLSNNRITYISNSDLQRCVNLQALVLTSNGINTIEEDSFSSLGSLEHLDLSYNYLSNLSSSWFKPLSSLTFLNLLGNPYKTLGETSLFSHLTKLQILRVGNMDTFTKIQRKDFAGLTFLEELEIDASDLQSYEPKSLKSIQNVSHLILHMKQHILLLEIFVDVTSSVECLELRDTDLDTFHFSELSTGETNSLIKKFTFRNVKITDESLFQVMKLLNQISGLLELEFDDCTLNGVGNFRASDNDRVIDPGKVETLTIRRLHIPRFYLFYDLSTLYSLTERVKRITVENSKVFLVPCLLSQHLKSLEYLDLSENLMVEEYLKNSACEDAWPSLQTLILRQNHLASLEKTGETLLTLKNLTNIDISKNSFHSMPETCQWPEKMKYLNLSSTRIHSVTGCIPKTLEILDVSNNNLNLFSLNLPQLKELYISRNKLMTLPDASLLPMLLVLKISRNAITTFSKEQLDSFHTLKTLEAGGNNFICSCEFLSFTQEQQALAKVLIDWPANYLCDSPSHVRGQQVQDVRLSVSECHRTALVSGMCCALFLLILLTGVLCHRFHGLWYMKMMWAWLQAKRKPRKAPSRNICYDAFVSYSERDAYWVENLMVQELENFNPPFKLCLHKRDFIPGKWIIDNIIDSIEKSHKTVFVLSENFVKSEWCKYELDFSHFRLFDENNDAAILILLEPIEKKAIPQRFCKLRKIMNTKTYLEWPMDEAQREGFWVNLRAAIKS

human TLR2 [2] = target: T2, human TLR2; assay: HEK-Blue hTLR2 antagonism assay (SEAP reporter) with agonist Pam2CSK4 (TLR2/6 agonist); conditions: Table A; HEK-Blue hTLR2 cells, ~3×EC50 Pam2CSK4, 18 h, SEAP OD 655 nm, 8-point dilutions

| SMILES | IC50 (human TLR9) [µM] | IC50 (human TLR2 [1]) [µM] | IC50 (human TLR2 [2]) [µM] |
| --- | --- | --- | --- |
| COc1cc(-c2cnn(-c3ccccc3)c2)cc(C=O)c1O [Compound A1, 2-hydroxy-3-methoxy-5-(1-phenyl-1H-pyrazol-4-yl)benzaldehyde] | ~2 | 0.9 | 2.2 |
| COc1cc(-c2cnn(CCN3CCOCC3)c2)cc(C=O)c1O [Compound A2, 2-hydroxy-3-methoxy-5-(1-(2-morpholinoethyl)-1H-pyrazol-4-yl)benzaldehyde] | > 33 | > 100 | > 100 |
| COCCCn1cc(-c2cc(C=O)c(O)c(OC)c2)cn1 [Compound A7, 2-hydroxy-3-methoxy-5-(1-(3-methoxypropyl)-1H-pyrazol-4-yl)benzaldehyde] | > 33 | 42.3 | 36.8 |
| COc1cc(-c2cnn(Cc3ccccn3)c2)cc(C=O)c1O [Compound A8, 2-hydroxy-3-methoxy-5-(1-(pyridin-2-ylmethyl)-1H-pyrazol-4-yl)benzaldehyde] | > 33 | > 100 | 85.5 |
| Cc1cc(-c2cnn(-c3ccccc3)c2)cc(C#N)c1O [Compound A12, 2-hydroxy-3-methyl-5-(1-phenyl-1H-pyrazol-4-yl)benzonitrile] | > 33 | > 100 | > 100 |
| Oc1cc(-c2cnn(-c3ccccc3)c2)cc(F)c1F [Compound A13, 2,3-difluoro-5-(1-phenyl-1H-pyrazol-4-yl)phenol] | > 33 | 39.7 | 45.7 |
| Cc1cc(-c2cnn(-c3ccccc3)c2)cc(O)c1F [Compound A14, 2-fluoro-3-methyl-5-(1-phenyl-1H-pyrazol-4-yl)phenol] | > 33 | 42.6 | 42.2 |
| Oc1c(F)cc(-c2cnn(-c3ccccc3)c2)cc1Cl [Compound A15, 2-chloro-6-fluoro-4-(1-phenyl-1H-pyrazol-4-yl)phenol] | > 33 | > 100 | > 100 |
| COc1cc(-c2cnn(-c3ccccc3)c2)cc(O)c1F [Compound A16, 2-fluoro-3-methoxy-5-(1-phenyl-1H-pyrazol-4-yl)phenol] | > 33 | > 100 | > 100 |
| O=Cc1cc(-c2cnn(-c3ccc(N4CCCC4)cc3)c2)cc(F)c1O [Compound A19, 3-fluoro-2-hydroxy-5-(1-(4-(pyrrolidin-1-yl)phenyl)-1H-pyrazol-4-yl)benzaldehyde] | < 1.2 | 0.5 | 0.5 |
| O=Cc1cc(-c2cnn(-c3cccc(N4CCCC4)c3)c2)cc(F)c1O [Compound A22, 3-fluoro-2-hydroxy-5-(1-(3-(pyrrolidin-1-yl)phenyl)-1H-pyrazol-4-yl)benzaldehyde] | > 10 | 0.9 | 0.9 |
| COc1cc(-c2ccn(-c3ccccc3)n2)cc(C=O)c1O [Compound A25, 2-hydroxy-3-methoxy-5-(1-phenyl-1H-pyrazol-3-yl)benzaldehyde] | ~3 | 1.2 | 1.9 |

Now from value to compound:

| IC50 (human TLR9) [µM] | IC50 (human TLR2 [1]) [µM] | IC50 (human TLR2 [2]) [µM] | SMILES |
| --- | --- | --- | --- |
| ~3 | 2.7 | 2.9 | O=Cc1cc(-c2ccn(-c3ccccc3)n2)cc(F)c1O [Compound A26, 3-fluoro-2-hydroxy-5-(1-phenyl-1H-pyrazol-3-yl)benzaldehyde] |
| < 1.2 | 0.8 | 0.9 | O=Cc1cc(-c2ccn(-c3ccc(N4CCCC4)cc3)n2)cc(F)c1O [Compound A27, 3-fluoro-2-hydroxy-5-(1-(4-(pyrrolidin-1-yl)phenyl)-1H-pyrazol-3-yl)benzaldehyde] |
| ~4 | 3.6 | 4 | CN1CCN(/N=C/c2cc(-c3ccn(-c4ccccc4)n3)cc(F)c2O)CC1 [Compound A33, (E)-2-fluoro-6-(((4-methylpiperazin-1-yl)imino)methyl)-4-(1-phenyl-1H-pyrazol-3-yl)phenol] |
| 0.1 | 0.3 | 0.4 | O=Cc1cc(-n2cc(-c3ccc(N4CCCC4)cc3)nn2)cc(F)c1O [Compound A42, 3-fluoro-2-hydroxy-5-(4-(4-(pyrrolidin-1-yl)phenyl)-1H-1,2,3-triazol-1-yl)benzaldehyde] |
| < 1.2 | 1.1 | 1.1 | O=Cc1cc(-c2cn(-c3ccc(N4CCCC4)cc3)nn2)cc(F)c1O [Compound A43, 3-fluoro-2-hydroxy-5-(1-(4-(pyrrolidin-1-yl)phenyl)-1H-1,2,3-triazol-4-yl)benzaldehyde] |
| ~1.2 | 0.7 | 1 | O=Cc1cc(-n2cc(-c3cccc(N4CCCC4)c3)nn2)cc(F)c1O [Compound A44, 3-fluoro-2-hydroxy-5-(4-(3-(pyrrolidin-1-yl)phenyl)-1H-1,2,3-triazol-1-yl)benzaldehyde] |
| < 1.2 | 1.3 | 2.3 | O=Cc1cc(-c2cn(-c3ccc(N4CCCC4)cc3)cn2)cc(F)c1O [Compound A47, 3-fluoro-2-hydroxy-5-(1-(4-(pyrrolidin-1-yl)phenyl)-1H-imidazol-4-yl)benzaldehyde] |
| < 1.2 | 0.7 | 1.7 | O=Cc1cc(-c2cc(-c3ccc(N4CCCC4)cc3)cs2)cc(F)c1O [Compound A51, 3-fluoro-2-hydroxy-5-(4-(4-(pyrrolidin-1-yl)phenyl)thiophen-2-yl)benzaldehyde] |
| < 1.2 | 0.2 | 0.7 | O=Cc1cc(-c2csc(-c3ccc(N4CCCC4)cc3)c2)cc(F)c1O [Compound A52, 3-fluoro-2-hydroxy-5-(5-(4-(pyrrolidin-1-yl)phenyl)thiophen-3-yl)benzaldehyde] |
| 0.2 | 0.4 | 0.6 | O=Cc1cc(-c2cnc(-c3ccc(N4CCCC4)cc3)s2)cc(F)c1O [Compound A55, 3-fluoro-2-hydroxy-5-(2-(4-(pyrrolidin-1-yl)phenyl)thiazol-5-yl)benzaldehyde] |

Reference: patent US11299487B2, “Compounds and compositions as modulators of TLR signaling” (Neuropore Therapies, Inc., priority 2019, dated 2022)
